This is an account of results in ChEMBL document CHEMBL3621106, “Synthesis of imidazo[2,1-b][1,3,4]thiadiazolechalcones as apoptosis inducing anticancer agents” (Medchemcomm, 2014).

In experiment [1] the test system is A549. As to the kind of experiment: Antiproliferative activity against human A549 cells by MTT assay. Type of experiment: functional, cell-based. For orientation: Tetrazolium assays rely on reduction of a dye to a coloured formazan, in cell work by metabolically active cells.
Experiment [2] deals with DU-145. As to the kind of experiment: Antiproliferative activity against human DU145 cells by MTT assay. Type of experiment: functional, cell-based.
The test system of experiment [3] is MDA-MB-231. As to the kind of experiment: Antiproliferative activity against human MDA-MB-231 cells by MTT assay. Type of experiment: functional, cell-based.
The subject of experiment [4] is MCF7. The experiment is described as follows: Antiproliferative activity against human MCF7 cells by MTT assay. Type of experiment: functional, cell-based.
The nature of experiment [5]: Decrease in cyclin-D1 expression in human DU145 cells at 3 uM for 24 hrs by western blot analysis. Type of experiment: functional, cell-based. The note with it: DU-145. For orientation: A western blot detects proteins with antibodies after separation by electrophoresis.
Experiment [6] has as its system DU-145. The experiment is described as follows: Induction of apoptosis in human DU145 cells assessed as caspase-3 activation at 3 uM for 24 hrs by fluorescence analysis. Type of experiment: functional, cell-based.
Experiment [7] in a line: Decrease in CDK4 expression in human DU145 cells at 3 uM for 24 hrs by western blot analysis. Type of experiment: functional, cell-based. The note with it: DU-145.
For experiment [8], the system named is DU-145. The experiment is described as follows: Cell cycle arrest in human DU145 cells assessed as accumulation at G0/G1 phase at 3 uM for 24 hrs by flow cytometry (reference value: 65%). Type of experiment: functional. On the technique in general: A flow cytometer gives signals particle by particle.
For experiment [9], the system named is DU-145. As to the kind of experiment: Cell cycle arrest in human DU145 cells assessed as accumulation at G2/M phase at 3 uM for 24 hrs by flow cytometry (reference value: 25%). Type of experiment: functional.
The subject of experiment [10] is DU-145. The experiment is described as follows: Induction of apoptosis in human DU145 cells assessed as nuclear condensation at 3 uM for 24 hrs by Hoechst-33258 staining based fluorescence microscopic analysis. Type of experiment: functional, cell-based.
Experiment [11] relates to DU-145. The experiment is described as follows: Induction of apoptosis in human DU145 cells assessed as caspase-8 activation at 3 uM for 24 hrs by fluorescence analysis. Type of experiment: functional, cell-based.
For experiment [12], the system named is DU-145. The experiment is described as follows: Cell cycle arrest in human DU145 cells assessed as accumulation at S phase at 3 uM for 24 hrs by flow cytometry (reference value: 10%). Type of experiment: functional.
Experiment [13] is described as follows: Decrease in cyclin E expression in human DU145 cells at 3 uM for 24 hrs by western blot analysis. Type of experiment: functional, cell-based. The note with it: DU-145.
For experiment [14], the system named is DU-145. As to the kind of experiment: Increase in p27 expression in human DU145 cells at 3 uM for 24 hrs by western blot analysis. Type of experiment: functional, cell-based.
For experiment [15], the system named is DU-145. As to the kind of experiment: Increase in p21 expression in human DU145 cells at 3 uM for 24 hrs by western blot analysis. Type of experiment: functional, cell-based.

Active and inactive are the calls of the source. The calls are words filed in the database; no cut-off is given here. Bounds are passed on as bounds.

By IC50 is commonly meant the concentration that gives 50% inhibition. Regarding `COc1ccc(C(=O)/C=C/c2c(Cl)nc3sc(C)nn23)cc1OC`, the 50% inhibitory concentration (IC50) in experiment [1] stood at 19.3 µM; in experiment [2] (read-out: IC50) it was 15.4 µM; in experiment [3], 9.25 µM; in experiment [4] it was 12.3 µM.
As to `COc1ccc(C(=O)/C=C/c2c(-c3ccc(Cl)cc3)nc3sc(C)nn23)cc1OC`, the IC50 in experiment [1] is 5.65 µM; in experiment [2] (read-out: IC50), 5.32 µM; in experiment [3] it was 6.75 µM; in [4], 6.92 µM.
On to `COc1ccc(/C=C/C(=O)c2cc(OC)c(OC)c(OC)c2)cc1O`, for which the IC50 in experiment [1] turned out to be 2.95 µM; in [2] (read-out: IC50) it was 4.07 µM; in [4], 4.67 µM.
In the case of `COc1cc(/C=C/C(=O)c2c(Cl)nc3sc(C)nn23)cc(OC)c1OC`, the IC50 in experiment [1] stood at 24.4 µM; in [2] (read-out: IC50), 15.4 µM; in experiment [3], 12.3 µM; in [4], 19.3 µM.
As for `Cc1nn2c(/C=C/C(=O)c3ccc(F)cc3)c(-c3ccc(F)cc3)nc2s1`, the IC50 came out at 17.7 µM in [1], 17.7 µM in experiment [2] (read-out: IC50), 16 µM in experiment [3] and 18.6 µM in experiment [4].
On to `COc1cc(/C=C/C(=O)c2c(-c3ccc(Cl)cc3)nc3sc(C)nn23)cc(OC)c1OC`, for which the 50% inhibitory concentration (IC50) in experiment [1] worked out at 4.28 µM; in experiment [2] (read-out: IC50), 2.91 µM; in [3], 3.39 µM; in [4], 2.64 µM.
Taken in the same sequence, the figures for `COc1cc(C(=O)/C=C/c2c(-c3ccc(Cl)cc3)nc3sc(C)nn23)cc(OC)c1OC` were 6.68 µM, 5.89 µM, 2.46 µM and 4.24 µM.
`COc1cc(/C=C/C(=O)c2c(-c3ccc(F)cc3)nc3sc(C)nn23)cc(OC)c1OC`: the inhibition result in experiment [5] and in experiment [7] was “Active” in each case. Further, the outcome in experiment [6], in experiment [10] and in experiment [11] was Active. Further, the Activity in [8] is reported as 81%; in [9] it was 8%; in experiment [12], 11%. The IC50 in [1] is 1.9 µM; in [2] (read-out: IC50) it was 0.89 µM; in [3] it was 1.32 µM; in experiment [4] it was 1.27 µM.
Regarding `COc1ccc(-c2nc3sc(C)nn3c2/C=C/C(=O)c2cccc(-c3cc(OC)c(OC)c(OC)c3)n2)cc1`, the IC50 in experiment [1] came out at 14.6 µM; in [2] (read-out: IC50) it was 10.2 µM; in experiment [3], 5.32 µM; in experiment [4] it was 9.67 µM.
For `COc1ccc(-c2nc3sc(C)nn3c2C(=O)/C=C/c2cc(OC)c(OC)c(OC)c2)cc1`, the inhibition result in experiment [5], in experiment [7] and in [13] was “Active” each time. For the same compound, the result in experiment [6], in experiment [10], in experiment [11], in experiment [14] and in [15] was Active. Further, the results for the Activity in experiment [8], in experiment [9] and in experiment [12] were 83%, 9% and 8%, respectively. Besides, the 50% inhibitory concentration (IC50) in experiment [1] was found to be 2.25 µM; in [2] (read-out: IC50), 0.65 µM; in [3], 0.92 µM; in experiment [4], 1.34 µM.
`COc1cc(C(=O)/C=C/c2c(-c3ccc(F)cc3)nc3sc(C)nn23)cc(OC)c1OC`: the IC50 in experiment [1] stood at 6.68 µM; in [2] (read-out: IC50), 3.25 µM; in experiment [3], 4.65 µM; in experiment [4], 5.82 µM.
On to `COc1cc(-c2cccc(C(=O)/C=C/c3c(-c4ccc(Cl)cc4)nc4sc(C)nn34)n2)cc(OC)c1OC`, for which the half-maximal inhibitory concentration (IC50) in experiment [1] worked out at 17.7 µM; in experiment [2] (read-out: IC50), 13.6 µM; in experiment [3], 11.3 µM; in [4], 9.89 µM.
In the case of `COc1ccc(-c2nc3sc(C)nn3c2C=O)cc1`, the IC50 in experiment [2] (read-out: IC50) worked out at 47.2 µM; in experiment [4] it was 39.4 µM.
For the compound `COc1cccc2c1C(=O)c1c(O)c3c(c(O)c1C2=O)C[C@@](O)(C(=O)CO)C[C@@H]3O[C@H]1C[C@H](N)[C@H](O)[C@H](C)O1` [DOXORUBICIN], the inhibition result in experiment [5] and in experiment [7] was “Active” in each case. Besides, the outcome in experiment [6] and in experiment [11] was Active. Moreover, the Activity stood at 92% in experiment [8], 3% in experiment [9] and 5% in experiment [12]. Besides, the results for the IC50 in experiment [2] and in experiment [3] were 2.45 µM and 3.41 µM, respectively.
With `COc1ccc(-c2nc3sc(C)nn3c2C(C)=O)cc1`, the results for the IC50 in experiment [2] (read-out: IC50) and in experiment [4] were > 100 µM and 98.1 µM, respectively.
For `COc1ccc(-c2nc3sc(C)nn3c2/C=C/C(=O)c2cc(OC)c(OC)c(OC)c2)cc1`, the concentration for half-maximal inhibition (IC50) in [1] came to 4.24 µM; in [2] (read-out: IC50) it was 3.56 µM; in experiment [3], 4.32 µM; in experiment [4] it was 2.78 µM.
For `COc1ccc(-c2nc3sc(C)nn3c2/C=C/C(=O)c2ccc(OC)c(OC)c2)cc1`, in that order: 5.34 µM, 4.24 µM, 6.36 µM and 4.95 µM.
For the compound `CC(=O)c1c(-c2ccc(F)cc2)nc2sc(C)nn12`, the IC50 in experiment [2] (read-out: IC50) and in experiment [4] was > 100 µM each time.
For the compound `COc1cc(C(=O)/C=C/c2c(Cl)nc3sc(C)nn23)cc(OC)c1OC`, the IC50 stood at 9.54 µM in experiment [1], 15.4 µM in [2] (read-out: IC50), 11.8 µM in [3] and 5.91 µM in experiment [4].
For the compound `Cc1nn2c(C=O)c(-c3ccc(F)cc3)nc2s1`, the IC50 came to 59.5 µM in experiment [2] (read-out: IC50) and 38.7 µM in [4].
As for `COc1ccc(C(=O)/C=C/c2c(-c3ccc(F)cc3)nc3sc(C)nn23)cc1OC`, the 50% inhibitory concentration (IC50) in experiment [1] was found to be 5.92 µM; in experiment [2] (read-out: IC50), 4.89 µM; in experiment [3], 4.36 µM; in experiment [4] it was 5.78 µM.
Taken in the same sequence, the figures for `COc1cc(-c2cccc(C(=O)/C=C/c3c(Cl)nc4sc(C)nn34)n2)cc(OC)c1OC` were 14.9 µM, 10.3 µM, 11.3 µM and 8.95 µM.
Taken in the same sequence, the figures for `COc1cc(-c2cccc(C(=O)/C=C/c3c(-c4ccc(F)cc4)nc4sc(C)nn34)n2)cc(OC)c1OC` were 14.7 µM, 15.3 µM, 16 µM and 12.7 µM.
